Reference: patent US8940781B2, “Pesticidal composition and its use” (Sumitomo Chemical Company, Limited, priority 2010, dated 2015)

Tested on: Rhizoctonia solani
Experiment: Soybean seed treatment test in soil contaminated by Rhizoctonia solani (disease control efficacy)
Assay type: in vivo, Rhizoctonia solani on soybean (variety: Natto shoryu)
Details: seed treatment of soybean; carboxamide compound alone 0.2 g/100 kg of seeds; cultivated 20 days in contaminated soil; versus non-treated plot
Description: A cyclohexanone solution (100 microL) containing prescribed amount (weight) of a test compound was applied on seeds of soybean (variety: Natto shoryu) (10 g) by using a rotary apparatus for seed treatment (Seed dresser, manufactured by Hans-Ulrich Hege GmbH).
One day after the application, plastic pot was filled with soil contaminated by Rhizoctonia solani, and the seeds treated with the test compounds were seeded in the soil and cultivated in a glass-greenhouse for 20 days (hereinafter referred to as “treated plot”).
Thereafter, the presence of disease caused by Rhizoctonia solani in the young plants which germinated from each seed was observed and disease severity was calculated according to the following calculation formula (1).
On the other hand, seeds of soybean which were not treated as above were cultivated in the same way as above (hereinafter referred to as “non-treated plot”) and the disease severity in the “non-treated plot” was calculated in the same way as the above “treated plot”. On the basis of the above disease severity in “treated plot” and “non-treated plot”, efficacy in “treated plot” was evaluated according to the following calculation formula (2). […]

Row | Structure (SMILES) | efficacy (%)
1 | CC1CC(C)(C)c2cccc(NC(=O)c3cn(C)nc3C(F)F)c21 (centres unmarked) [carboxamide compound (1)] | 47.4
2 | Cc1nn(C)c(C)c1C(=O)Nc1cccc2c1C(C)CC2(C)C (centres unmarked) [carboxamide compound (5)] | 15.8
